This is an account of results in the supplement of paper PMC10307832.

The test system of the first experiment is HCC-78. Nature of the experiment: relative viability (nuclei count vs DMSO), 5 days (fraction); higher = more cells survive. The settings on record: first compound 0.6325 µM. The gist of the method: (§1)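 Dosing by pin tool came one day after lung cancer cell lines were seeded in 1536-well plates, using either one drug or a fixed anchor-drug dose plus five library-drug doses (not always all listed) in √10 steps. After 5 days, nuclei were counted on 4× images. Relative viability is treated-well nuclei count divided by vehicle-well nuclei count, and values are medians of duplicate plates.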
Consider `COCC1(CO)C(=O)C2CCN1CC2` (stereo not drawn) [PRIMA-1MET] + N=C(N)NC(=N)NCCc1ccccc1 [Phenformin] (partner 250 µM), for which the relative viability came out at 0.648.
With `COCC1(CO)C(=O)C2CCN1CC2` (stereo not drawn) [PRIMA-1MET] + Nc1nc2[nH]cc(CCc3ccc(C(=O)N[C@@H](CCC(=O)O)C(=O)O)cc3)c2c(=O)[nH]1 [Pemetrexed] (partner 0.2 µM), the relative viability turned out to be 0.886.
With `COCC1(CO)C(=O)C2CCN1CC2` (stereo not drawn) [PRIMA-1MET] + CC(=O)Nc1cccc(-n2c(=O)n(C3CC3)c(=O)c3c(Nc4ccc(I)cc4F)n(C)c(=O)c(C)c32)c1 [Trametinib] (partner 0.02 µM), the relative viability turned out to be 0.708.
`COCC1(CO)C(=O)C2CCN1CC2` (stereo not drawn) [PRIMA-1MET] + Nc1ncn([C@H]2C[C@H](O)[C@@H](CO)O2)c(=O)n1 [Decitabine] (partner 2 µM) registered a relative viability of 0.598.
Take `COCC1(CO)C(=O)C2CCN1CC2` (stereo not drawn) [PRIMA-1MET] + O=C(c1cc(Cc2n[nH]c(=O)c3ccccc23)ccc1F)N1CCN(C(=O)C2CC2)CC1 [Olaparib] (partner 8 µM): the relative viability was determined as 1.06.

Staying with this experiment, now noted: first compound 2 µM.
`COCC1(CO)C(=O)C2CCN1CC2` (stereo not drawn) [PRIMA-1MET] + Nc1nc2[nH]cc(CCc3ccc(C(=O)N[C@@H](CCC(=O)O)C(=O)O)cc3)c2c(=O)[nH]1 [Pemetrexed] (partner 0.2 µM): the relative viability came to 0.914.
`COCC1(CO)C(=O)C2CCN1CC2` (stereo not drawn) [PRIMA-1MET] + CC(=O)Nc1cccc(-n2c(=O)n(C3CC3)c(=O)c3c(Nc4ccc(I)cc4F)n(C)c(=O)c(C)c32)c1 [Trametinib] (partner 0.02 µM) had a relative viability of 0.478.
Compound `COCC1(CO)C(=O)C2CCN1CC2` (stereo not drawn) [PRIMA-1MET] + Nc1ncn([C@H]2C[C@H](O)[C@@H](CO)O2)c(=O)n1 [Decitabine] (partner 2 µM) had a relative viability of 0.553.
With `COCC1(CO)C(=O)C2CCN1CC2` (stereo not drawn) [PRIMA-1MET] + O=C(c1cc(Cc2n[nH]c(=O)c3ccccc23)ccc1F)N1CCN(C(=O)C2CC2)CC1 [Olaparib] (partner 8 µM), the relative viability came out at 0.573.

Still in this experiment, the particulars now being: first compound 6.325 µM.
Compound `COCC1(CO)C(=O)C2CCN1CC2` (stereo not drawn) [PRIMA-1MET] + N=C(N)NC(=N)NCCc1ccccc1 [Phenformin] (partner 250 µM) showed a relative viability of 0.658.
`COCC1(CO)C(=O)C2CCN1CC2` (stereo not drawn) [PRIMA-1MET] + Nc1nc2[nH]cc(CCc3ccc(C(=O)N[C@@H](CCC(=O)O)C(=O)O)cc3)c2c(=O)[nH]1 [Pemetrexed] (partner 0.2 µM) registered a relative viability of 0.832.
As to `COCC1(CO)C(=O)C2CCN1CC2` (stereo not drawn) [PRIMA-1MET] + CC(=O)Nc1cccc(-n2c(=O)n(C3CC3)c(=O)c3c(Nc4ccc(I)cc4F)n(C)c(=O)c(C)c32)c1 [Trametinib] (partner 0.02 µM), the relative viability turned out to be 0.596.
In the case of `COCC1(CO)C(=O)C2CCN1CC2` (stereo not drawn) [PRIMA-1MET] + Nc1ncn([C@H]2C[C@H](O)[C@@H](CO)O2)c(=O)n1 [Decitabine] (partner 2 µM), the relative viability was 0.697.
The compound `COCC1(CO)C(=O)C2CCN1CC2` (stereo not drawn) [PRIMA-1MET] + O=C(c1cc(Cc2n[nH]c(=O)c3ccccc23)ccc1F)N1CCN(C(=O)C2CC2)CC1 [Olaparib] (partner 8 µM) registered a relative viability of 0.881.

Still in this experiment, the particulars now being: first compound 20 µM.
In the case of `COCC1(CO)C(=O)C2CCN1CC2` (stereo not drawn) [PRIMA-1MET] + N=C(N)NC(=N)NCCc1ccccc1 [Phenformin] (partner 250 µM), the relative viability is 0.599.
Compound `COCC1(CO)C(=O)C2CCN1CC2` (stereo not drawn) [PRIMA-1MET] + Nc1nc2[nH]cc(CCc3ccc(C(=O)N[C@@H](CCC(=O)O)C(=O)O)cc3)c2c(=O)[nH]1 [Pemetrexed] (partner 0.2 µM) registered a relative viability of 0.864.
The same measure, in the same setting: then `COCC1(CO)C(=O)C2CCN1CC2` (stereo not drawn) [PRIMA-1MET] + CC(=O)Nc1cccc(-n2c(=O)n(C3CC3)c(=O)c3c(Nc4ccc(I)cc4F)n(C)c(=O)c(C)c32)c1 [Trametinib] (partner 0.02 µM), with 0.331; and `COCC1(CO)C(=O)C2CCN1CC2` (stereo not drawn) [PRIMA-1MET] + Nc1ncn([C@H]2C[C@H](O)[C@@H](CO)O2)c(=O)n1 [Decitabine] (partner 2 µM), with 0.377.
Same read-out and setting: then `COCC1(CO)C(=O)C2CCN1CC2` (stereo not drawn) [PRIMA-1MET] + O=C(c1cc(Cc2n[nH]c(=O)c3ccccc23)ccc1F)N1CCN(C(=O)C2CC2)CC1 [Olaparib] (partner 8 µM), with 0.338.

In another experiment the test system is NCI-H661. Described as above. The settings on record: first compound 0.2 µM. The gist of the method:
as §1
Regarding `COCC1(CO)C(=O)C2CCN1CC2` (stereo not drawn) [PRIMA-1MET] + N=C(N)NC(=N)NCCc1ccccc1 [Phenformin] (partner 250 µM), the relative viability came to 0.304.
On the same count and under the same terms, then `COCC1(CO)C(=O)C2CCN1CC2` (stereo not drawn) [PRIMA-1MET] + Nc1nc2[nH]cc(CCc3ccc(C(=O)N[C@@H](CCC(=O)O)C(=O)O)cc3)c2c(=O)[nH]1 [Pemetrexed] (partner 0.2 µM), with 0.954; and `COCC1(CO)C(=O)C2CCN1CC2` (stereo not drawn) [PRIMA-1MET] + CC(=O)Nc1cccc(-n2c(=O)n(C3CC3)c(=O)c3c(Nc4ccc(I)cc4F)n(C)c(=O)c(C)c32)c1 [Trametinib] (partner 0.02 µM), with 0.506.
In turn, `COCC1(CO)C(=O)C2CCN1CC2` (stereo not drawn) [PRIMA-1MET] + Nc1ncn([C@H]2C[C@H](O)[C@@H](CO)O2)c(=O)n1 [Decitabine] (partner 2 µM) came in with a relative viability of 0.549.
`COCC1(CO)C(=O)C2CCN1CC2` (stereo not drawn) [PRIMA-1MET] + O=C(c1cc(Cc2n[nH]c(=O)c3ccccc23)ccc1F)N1CCN(C(=O)C2CC2)CC1 [Olaparib] (partner 8 µM) registered a relative viability of 0.827.

The same experiment, now with this note: first compound 0.6325 µM.
In turn, `COCC1(CO)C(=O)C2CCN1CC2` (stereo not drawn) [PRIMA-1MET] + N=C(N)NC(=N)NCCc1ccccc1 [Phenformin] (partner 250 µM) had a relative viability of 0.261.
`COCC1(CO)C(=O)C2CCN1CC2` (stereo not drawn) [PRIMA-1MET] + Nc1nc2[nH]cc(CCc3ccc(C(=O)N[C@@H](CCC(=O)O)C(=O)O)cc3)c2c(=O)[nH]1 [Pemetrexed] (partner 0.2 µM) came in with a relative viability of 0.849.
On to `COCC1(CO)C(=O)C2CCN1CC2` (stereo not drawn) [PRIMA-1MET] + CC(=O)Nc1cccc(-n2c(=O)n(C3CC3)c(=O)c3c(Nc4ccc(I)cc4F)n(C)c(=O)c(C)c32)c1 [Trametinib] (partner 0.02 µM), for which the relative viability was 0.492.
`COCC1(CO)C(=O)C2CCN1CC2` (stereo not drawn) [PRIMA-1MET] + Nc1ncn([C@H]2C[C@H](O)[C@@H](CO)O2)c(=O)n1 [Decitabine] (partner 2 µM) displayed a relative viability of 0.459.
In turn, `COCC1(CO)C(=O)C2CCN1CC2` (stereo not drawn) [PRIMA-1MET] + O=C(c1cc(Cc2n[nH]c(=O)c3ccccc23)ccc1F)N1CCN(C(=O)C2CC2)CC1 [Olaparib] (partner 8 µM) had a relative viability of 0.721.

The same experiment, now with this note: first compound 2 µM.
In turn, `COCC1(CO)C(=O)C2CCN1CC2` (stereo not drawn) [PRIMA-1MET] + N=C(N)NC(=N)NCCc1ccccc1 [Phenformin] (partner 250 µM) returned a relative viability of 0.274.
The compound `COCC1(CO)C(=O)C2CCN1CC2` (stereo not drawn) [PRIMA-1MET] + Nc1nc2[nH]cc(CCc3ccc(C(=O)N[C@@H](CCC(=O)O)C(=O)O)cc3)c2c(=O)[nH]1 [Pemetrexed] (partner 0.2 µM) showed a relative viability of 0.952.
In turn, `COCC1(CO)C(=O)C2CCN1CC2` (stereo not drawn) [PRIMA-1MET] + CC(=O)Nc1cccc(-n2c(=O)n(C3CC3)c(=O)c3c(Nc4ccc(I)cc4F)n(C)c(=O)c(C)c32)c1 [Trametinib] (partner 0.02 µM) came in with a relative viability of 0.547.
The same measure, in the same setting: then `COCC1(CO)C(=O)C2CCN1CC2` (stereo not drawn) [PRIMA-1MET] + Nc1ncn([C@H]2C[C@H](O)[C@@H](CO)O2)c(=O)n1 [Decitabine] (partner 2 µM), with 0.517.
